Measured values from publication PMC9295122, “Sialic Acid Derivatives Inhibit SiaT Transporters and Delay Bacterial Growth” (ACS Chemical Biology, 2022).

Experiments:
Plasma stability, rat = format: in vitro ADME; settings: 1 μM, 37 °C
Procedure: (§1) The reaction was started by the addition of the compound to blank plasma in LC vials after preincubation at 37 °C. The initial compound concentration was 1 μM. The reaction was stopped by the addition of ACN at seven time points (0, 0.5, 1, 2, 4, 6, and 23 h). Time point 0 h was about 15–20 s after spiking the plasma with the compound. The samples were centrifuged and the supernatant diluted and analyzed by LC–MS/MS to determine the % of compound remaining relative to the initial concentration of compound.

PmSiaT = target: T1, PmSiaT (Proteus mirabilis, UniProt B4EZY7); assay: [3H]Neu5Ac efflux in proteoliposomes, PmSiaT; format: biochemical; settings: 0.1 mM external compound
T1 construct: made in house
T1 sequence (B4EZY7 1-496): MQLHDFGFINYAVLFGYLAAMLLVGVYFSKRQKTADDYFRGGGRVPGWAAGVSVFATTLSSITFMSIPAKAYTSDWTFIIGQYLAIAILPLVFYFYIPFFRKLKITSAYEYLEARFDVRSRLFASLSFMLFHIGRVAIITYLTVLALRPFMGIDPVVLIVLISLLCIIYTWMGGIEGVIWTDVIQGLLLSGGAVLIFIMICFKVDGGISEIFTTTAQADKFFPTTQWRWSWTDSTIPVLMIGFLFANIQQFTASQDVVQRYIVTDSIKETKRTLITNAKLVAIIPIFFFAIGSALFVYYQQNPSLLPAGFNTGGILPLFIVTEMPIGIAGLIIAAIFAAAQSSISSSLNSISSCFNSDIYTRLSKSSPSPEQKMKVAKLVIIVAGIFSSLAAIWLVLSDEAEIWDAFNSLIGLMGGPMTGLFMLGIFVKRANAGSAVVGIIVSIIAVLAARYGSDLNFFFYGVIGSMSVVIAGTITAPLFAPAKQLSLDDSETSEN
Procedure: Figure 5 Kinetic analysis of the inhibition of recombinant SiaT from P. mirabilis (A,B) and S. aureus (C,D) reconstituted in proteoliposomes and [^3H]Neu5Ac efflux in proteoliposomes (E,F). (a–d) Data were plotted according to Lineweaver–Burk as a reciprocal transport rate vs reciprocal Neu5Ac concentration. The transport rate was measured, in 5 min, by adding [^3H] Neu5Ac at the indicated concentrations to proteoliposomes containing 20 mM K^+-gluconate in the presence of valinomycin as described in the Supporting Information. [(A,B) P. mirabilis SiaT]; (A) compound 3f 0.25 μM (●) or 0.75 μM (□) was added in comparison to samples without inhibitor (○). (B) Compound 3e 12 μM (●) or 40 μM (□) was added in comparison to samples without an inhibitor (○). [(C,D) S. aureus SiaT]. (C) Compound 3f 80 μM (●) or 200 μM (□) was added in comparison to samples without an inhibitor (○). (D) Compound 3e 5 μM (●) or 12 μM (□) was added in comparison to samples without an inhibitor (○). Results are mean ± s.d. from four independent experiments (n = 4). […] Data are calculated as the percent of residual activity with respect to the control sample (efflux time zero). The results are the means ± s.d. of three independent experiments. […]
For uptake experiments, 600 μL of proteoliposomes were loaded onto a Sephadex G-75 column (0.7 cm diameter × 15 cm height), pre-equilibrated with 20 mM Hepes Tris pH 7.0 with 40 mM sucrose to balance the internal osmolarity. […] For kinetic measurement, the initial transport rate was measured by stopping the reaction after 5 min, that is, within the initial linear range of [^3H]-Neu5Ac uptake into the proteoliposomes previously described. […] In both uptake and efflux experiments, the transport assay was terminated by loading each proteoliposome sample (100 μL) on a Sephadex G-75 column (0.6 cm diameter × 8 cm height) to remove the external radioactivity. Proteoliposomes were eluted with 1 mL of 50 mM NaCl and collected in a 4 mL of scintillation mixture, vortexed and counted. […]

Plasma stability, dog = format: in vitro ADME; settings: 1 μM, 37 °C
Procedure: as §1

SaSiaT = SaSiaT (Staphylococcus aureus, UniProt A0A0H2XJ46); assay: nanoDSF thermal shift assay, SaSiaT; format: binding; settings: for Average 1 / Average 2 / Average 3 / Replicate 1 / Replicate 2 / Replicate 3: SaSiaT Tm; for Average 1: average of experiment 1; for Average 2: average of experiment 2; for Average 3: average of experiment 3; for Replicate 1: experiment 1, second capillary; for Replicate 1 / Replicate 2 / Replicate 3 / Tm 1 / Tm2 / Tm 3 / Overall average (Tm): 1.25 mM; for Replicate 2: experiment 2, second capillary; for Replicate 3: experiment 3, second capillary; for Tm 1 / Tm2 / Tm 3 / Overall average (Tm): SaSiaT; for Tm 1: experiment 1, first capillary; for Tm2: experiment 2, first capillary; for Tm 3: experiment 3, first capillary; for Overall average (Tm): three experiments
SaSiaT, sequence (A0A0H2XJ46 entry or part of it): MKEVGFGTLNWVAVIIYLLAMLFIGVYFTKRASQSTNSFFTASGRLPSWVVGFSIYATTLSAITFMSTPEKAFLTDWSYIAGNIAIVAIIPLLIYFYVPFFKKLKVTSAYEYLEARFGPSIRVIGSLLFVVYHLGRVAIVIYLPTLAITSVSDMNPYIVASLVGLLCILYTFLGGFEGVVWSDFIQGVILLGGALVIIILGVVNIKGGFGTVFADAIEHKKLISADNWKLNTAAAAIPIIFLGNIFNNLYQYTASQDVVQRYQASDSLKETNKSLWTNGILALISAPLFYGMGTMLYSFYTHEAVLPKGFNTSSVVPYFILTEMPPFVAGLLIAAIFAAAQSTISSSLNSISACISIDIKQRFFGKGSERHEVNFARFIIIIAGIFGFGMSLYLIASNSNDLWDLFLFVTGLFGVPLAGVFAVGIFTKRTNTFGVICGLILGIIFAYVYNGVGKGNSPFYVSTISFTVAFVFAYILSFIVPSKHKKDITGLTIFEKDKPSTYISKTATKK
Outline: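 Protein at 2 μM in PBS with 0.0174% (w/v) DDM and ligand at 1.25 mM were heated from 25 to 95 °C at 1 °C/min, with 330/350 nm fluorescence ratio and its first derivative giving Tm. ΔTm is relative to the Neu5Ac Tm, averaged over 3 experiments with 2 capillaries each.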

| SMILES | In vitro plasma stability (% compound remaining after 23 h) (Plasma stability, rat) [%] | [3H]Neu5Ac efflux induced (PmSiaT) | In vitro plasma stability (% compound remaining after 23 h) (Plasma stability, dog) [%] | Average 1 (SaSiaT) [°C] | Average 2 (SaSiaT) [°C] | Average 3 (SaSiaT) [°C] | Replicate 1 (SaSiaT) [°C] | Replicate 2 (SaSiaT) [°C] | Replicate 3 (SaSiaT) [°C] | Tm 1 (SaSiaT) [°C] | Tm2 (SaSiaT) [°C] | Tm 3 (SaSiaT) [°C] | Overall average (Tm) (SaSiaT) [°C] | ΔTm (SaSiaT; nanoDSF, relative to Neu5Ac, ligand 1.25 mM, <−5 °C nonbinder) [°C] |
| --- | --- | --- | --- | --- | --- | --- | --- | --- | --- | --- | --- | --- | --- | --- |
| CC(=O)NC1C(OCc2cc(F)cc(F)c2)CC(O)(C(=O)O)OC1C(O)C(O)CO (centres unmarked) [Compound 3e] | 100 | did not cause any [^3H]Neu5Ac efflux | 100 | 57.3 | 56.7 | 57.1 | 57.3 | 56.7 | 56.9 | 57.3 | 56.6 | 57.2 | 57.0 |  |
| CC(=O)NC1C(OCc2ccccc2)CC(O)(C(=O)O)OC1C(O)C(O)CO (centres unmarked) [Compound 3a] | 100 |  | 100 | 56.2 | 55.7 | 56.3 | 56.1 | 55.8 | 56.1 | 56.2 | 55.7 | 56.6 | 56.1 |  |
| CC(=O)NC1C(OCc2cc(Br)cc(Br)c2)CC(O)(C(=O)O)OC1C(O)C(O)CO (centres unmarked) [Compound 3f] | 100 | did not cause any [^3H]Neu5Ac efflux | 81 | 53.1 | 54.0 | 54.4 | 53.1 | 54.0 | 54.3 | 53.1 | 54.0 | 54.4 | 53.8 | 2.6 ± 0.7 |
| CC(=O)N[C@H]1[C@H]([C@H](O)[C@H](O)CO)OC(O)(C(=O)O)C[C@@H]1O (some centres unmarked) [Neu5Ac, 5-N-acetyl neuraminic acid, reference compound] |  | slow but measurable counter flow |  | 51.3 | 51.1 | 51.3 | 51.4 | 51.4 | 51.0 | 51.3 | 50.9 | 51.6 | 51.2 |  |
